{"source": "PubChem BioAssay AID1648", "about": "(Sanford-Burnham Center for Chemical Genomics, 2009)", "note": "Calls of active or inactive are those of the source. How the calls were made is not given here.", "data": [{"molecular_target": "Serine/threonine-protein kinase mTOR (Homo sapiens) (UniProt P42345)", "sequence (P42345 2015-2114)": "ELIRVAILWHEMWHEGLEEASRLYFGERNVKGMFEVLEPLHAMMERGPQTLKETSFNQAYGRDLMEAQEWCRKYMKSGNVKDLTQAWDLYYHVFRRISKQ", "test": "mTOR FRB domain ligand binding – biophysical, NMR (AID 1648)", "settings": "NMR binding to FRB domain, chemical shift", "values": [{"smiles": "Cc1sc2nc(-c3ccco3)oc(=O)c2c1C", "Kd": "> 4 mM (inactive)"}, {"smiles": "CNC(C)[C@H](O)c1ccccc1", "note": "(some centres not stated)", "Kd": "> 4 mM (inactive)"}, {"smiles": "O=C(CSc1ncnc2ccccc12)NCCCO", "Kd": "> 4 mM (inactive)"}, {"smiles": "Cc1c(N=CN2CCOCC2)c(=O)n(C)c(=O)n1C", "Kd": "> 4 mM (inactive)"}, {"smiles": "CC(C)CNc1cc(=O)n(C)c(=O)n1C", "Kd": "> 4 mM (inactive)"}, {"smiles": "Cc1cc(=O)n2[nH]c(N)nc2n1", "Kd": "> 4 mM (inactive)"}, {"smiles": "S=C=NCc1ccccc1", "Kd": "> 4 mM (inactive)"}, {"smiles": "Cc1ccc(-c2cc(C(=O)N3CCCC3)no2)cc1", "Kd": "> 4 mM (inactive)"}, {"smiles": "C=CC(C1=CC(=O)C(OC)=CC1=O)c1ccc(O)cc1", "note": "(configuration not stated)", "Kd": "> 4 mM (inactive)"}, {"smiles": "CCOC(=O)CN1C(=O)c2ccccc2C1=O", "Kd": "> 4 mM (inactive)"}, {"smiles": "CCOC(=O)C1=C(O)CCN(C)C1", "Kd": "> 4 mM (inactive)"}, {"smiles": "COC(=O)c1ccccc1N(C)S(C)(=O)=O", "Kd": "> 4 mM (inactive)"}, {"smiles": "COc1cc(OC)c2c(=O)c(-c3ccccc3)coc2c1", "Kd": "> 4 mM (inactive)"}, {"smiles": "O=C1CCC(C(=O)NCc2ccc(Cl)cc2)N1", "note": "(configuration not stated)", "Kd": "> 4 mM (inactive)"}, {"smiles": "Nc1ccn(C2O[C@H](CO)[C@@H](O)[C@H]2O)c(=O)n1", "note": "(some centres not stated)", "Kd": "> 4 mM (inactive)"}, {"smiles": "O=C(Nn1cnnc1)c1csc2ccccc12", "Kd": "> 4 mM (inactive)"}, {"smiles": "Nc1ccc(OC(F)(F)F)cc1", "Kd": "> 4 mM (inactive)"}, {"smiles": "O=S1(=O)CCC2CC=CCC21", "note": "(configuration not stated)", "Kd": "> 4 mM (inactive)"}, {"smiles": "[O-][n+]1c2ccccc2[n+]([O-])c2cc(O)ccc21", "Kd": "> 4 mM (inactive)"}, {"smiles": "CCC1=Nc2ccccc2-c2nnc(SC)nc2O1", "Kd": "> 4 mM (inactive)"}, {"smiles": "Cn1c(=O)c2c(ncn2CCN)n(C)c1=O", "Kd": "> 4 mM (inactive)"}, {"smiles": "COC(=O)c1cccc2cc[nH]c12", "Kd": "> 4 mM (inactive)"}, {"smiles": "C=CC(C1=CC(=O)C(OC)=CC1=O)c1ccccc1", "note": "(configuration not stated)", "Kd": "> 4 mM (inactive)"}, {"smiles": "COc1cc(NC(=O)c2ccccc2)c(C)cc1N", "Kd": "> 4 mM (inactive)"}, {"smiles": "C=C1C([C@]2(C)C(CC(=O)OC)[C@@](C)(COC(C)=O)OC(=O)C[C@@H]2OC(C)=O)[C@@H](OC=O)[C@H](OC(=O)C(OC(C)=O)C(C)CC)[C@@]2(C)[C@H](c3ccoc3)CC(=O)C12O", "note": "(some centres not stated)", "Kd": "> 4 mM (inactive)"}, {"smiles": "Cc1cccc(C)c1N1C(=O)CCC1=O", "Kd": "> 4 mM (inactive)"}, {"smiles": "CC(C)Nc1nc2n(c(=O)n1)CCN2C(C)C", "Kd": "> 4 mM (inactive)"}, {"smiles": "Cc1nnc(Nc2cccnc2)[nH]c1=O", "Kd": "> 4 mM (inactive)"}, {"smiles": "Nc1scc[n+]1CC(=O)[O-]", "Kd": "> 4 mM (inactive)"}, {"smiles": "CN1CCN(c2ccc(N)cc2)CC1", "Kd": "> 4 mM (inactive)"}, {"smiles": "CCCCCC1C(=O)CCC1CC(=O)OC", "note": "(configuration not stated)", "Kd": "> 4 mM (inactive)"}, {"smiles": "O=C(O)c1csc(-c2cccs2)n1", "Kd": "> 4 mM (inactive)"}, {"smiles": "O=C(O)/C=C(\\CC(=O)O)C(=O)O", "Kd": "> 4 mM (inactive)"}, {"smiles": "COc1ccc([C@@H]2CC(=O)c3c(O)cc(O[C@@H]4O[C@H](CO[C@H]5O[C@@H](C)[C@H](O)[C@@H](O)[C@H]5O)[C@@H](O)[C@H](O)[C@H]4O)cc3O2)cc1O", "Kd": "> 4 mM (inactive)"}, {"smiles": "NC(=O)Cn1nc(-c2ccc(F)cc2)ccc1=O", "Kd": "> 4 mM (inactive)"}, {"smiles": "CC(CCC(=O)O)[C@H]1CCC2C3C[C@H](O)[C@@H]4C[C@H](O)CC[C@]4(C)C3CC[C@@]21C", "note": "(some centres not stated)", "Kd": "> 4 mM (inactive)"}, {"smiles": "C=C1C2=CC(=O)O[C@@H](c3ccoc3)[C@]2(C)CCC1[C@@]1(C)C=CC(=O)C(C)(C)[C@@H]1CC(=O)OC", "note": "(some centres not stated)", "Kd": "> 4 mM (inactive)"}, {"smiles": "COc1ccc(S(=O)(=O)NCCO)cc1", "Kd": "> 4 mM (inactive)"}, {"smiles": "Cc1nc2ccc(F)cc2cc1C(=O)NCc1ccco1", "Kd": "> 4 mM (inactive)"}, {"smiles": "CCn1cnc2cc(NCc3ccncc3)ccc21", "Kd": "> 4 mM (inactive)"}, {"smiles": "Cc1cccc(N2CCN(C(=O)c3ccncc3)CC2)c1C", "Kd": "> 4 mM (inactive)"}, {"smiles": "Cc1ccccc1-n1c(-c2ccncc2)n[nH]c1=S", "Kd": "> 4 mM (inactive)"}, {"smiles": "CSc1nnc2c(n1)OC(C)=Nc1ccccc1-2", "Kd": "> 4 mM (inactive)"}, {"smiles": "CC(=O)NCC1OCCc2ccccc21", "note": "(configuration not stated)", "Kd": "> 4 mM (inactive)"}, {"smiles": "CN1CCC(O)N1C(=O)c1ccccc1O", "note": "(configuration not stated)", "Kd": "> 4 mM (inactive)"}, {"smiles": "Cc1ncoc1C(=O)Nc1ncc([N+](=O)[O-])s1", "Kd": "> 4 mM (inactive)"}, {"smiles": "Cc1ccc(CN2CCNC(=O)C2CC(=O)O)o1", "note": "(configuration not stated)", "Kd": "> 4 mM (inactive)"}, {"smiles": "O=C(O)CS(=O)(=O)c1ccccc1[N+](=O)[O-]", "Kd": "> 4 mM (inactive)"}, {"smiles": "O=c1ccc2c([nH]1)CCCC2", "Kd": "> 4 mM (inactive)"}, {"smiles": "O=C(O)c1csc2ccccc12", "Kd": "> 4 mM (inactive)"}, {"smiles": "CC(=O)OC1CC[C@@]2(C)C(CCC3C2CC[C@]2(C)C(C4=CC(=O)OC4)C(OC(C)=O)CC32O)C1", "note": "(some centres not stated)", "Kd": "> 4 mM (inactive)"}, {"smiles": "O=S(=O)(c1ccc(F)c(Cl)c1)N1CCCC1", "Kd": "> 4 mM (inactive)"}, {"smiles": "COC(=O)C[C@@H]1C2(C)C(=O)[C@@H](CC3C2CC[C@]2(C)C3CC(=O)O[C@H]2c2ccoc2)[C@H](OC(C)=O)C1(C)C", "note": "(some centres not stated)", "Kd": "> 4 mM (inactive)"}, {"smiles": "COc1cc(/C=C/C(=O)/C=C(O)/C=C/c2ccc(O)c(OC)c2)ccc1O", "Kd": "> 4 mM (inactive)"}, {"smiles": "O=C(NCCO)c1cc2ccccc2cc1O", "Kd": "> 4 mM (inactive)"}, {"smiles": "CC12OC(=O)CC3C(C)(C)[C@H](O)C=C[C@]3(C)C1CC[C@]1(C)C2=CC(=O)O[C@H]1c1ccoc1", "note": "(some centres not stated)", "Kd": "> 4 mM (inactive)"}, {"smiles": "CS(=O)(=O)CCCCN=C=S", "Kd": "> 4 mM (inactive)"}, {"smiles": "O=C(O)c1ccc(NC(=O)c2cccs2)cc1", "Kd": "> 4 mM (inactive)"}, {"smiles": "Cc1ccc(NC(=O)C(=O)Nc2ccccn2)cc1", "Kd": "> 4 mM (inactive)"}, {"smiles": "O=C1C=CC(=O)c2c(O)cccc21", "Kd": "> 4 mM (inactive)"}, {"smiles": "CC(=O)N1CCc2cc(NC(=O)c3ccc(C)cc3)ccc21", "Kd": "> 4 mM (inactive)"}, {"smiles": "COc1ccc(-c2coc3cc(O)ccc3c2=O)c(OC)c1", "Kd": "> 4 mM (inactive)"}, {"smiles": "NC(=O)C1CCN(C(=O)c2ccco2)CC1", "Kd": "> 4 mM (inactive)"}, {"smiles": "CN(C)C(=S)Nc1nc2ccccc2s1", "Kd": "> 4 mM (inactive)"}, {"smiles": "COc1ccc2c(c1OC)C(=O)N(c1ncn[nH]1)C2", "Kd": "> 4 mM (inactive)"}, {"smiles": "O=c1cccc2n1C[C@H]1CNCC2C1", "Kd": "> 4 mM (inactive)"}, {"smiles": "O=c1cc(CO)oc(CN2CCCCC2)c1O", "Kd": "> 4 mM (inactive)"}, {"smiles": "C=C1C2CC[C@@]3(C)[C@H](c4ccoc4)OC(=O)C[C@]13O[C@H]1CC(=O)C(C)(C)C(CC(=O)OC)C21C", "note": "(some centres not stated)", "Kd": "> 4 mM (inactive)"}, {"smiles": "Cc1onc(-c2ccccc2)c1CN", "Kd": "> 4 mM (inactive)"}, {"smiles": "CCOC(=O)Cn1cnc2sc3c(c2c1=O)CCC3", "Kd": "> 4 mM (inactive)"}, {"smiles": "Cc1cc(C(=O)N2CCN(c3ccccn3)CC2)c(C)o1", "Kd": "> 4 mM (inactive)"}, {"smiles": "Cc1ccccc1NC(=O)c1ccccc1", "Kd": "> 4 mM (inactive)"}, {"smiles": "CCC(C)C(=O)OC1[C@@H]2CC3=C4CC(=O)O[C@@H](c5ccoc5)[C@]4(C)CCC3C(C)(C2=O)[C@@H](CC(=O)OC)C1(C)C", "note": "(some centres not stated)", "Kd": "> 4 mM (inactive)"}, {"smiles": "CC(=O)Nc1nnc(-c2ccco2)o1", "Kd": "> 4 mM (inactive)"}, {"smiles": "Cc1noc(C)c1C(=O)Nc1ccccn1", "Kd": "> 4 mM (inactive)"}, {"smiles": "Cn1ncc(NC(=O)Nc2ccc(F)cc2F)c1C(N)=O", "Kd": "> 4 mM (inactive)"}, {"smiles": "NC(=O)CSc1ncnc2ccccc12", "Kd": "> 4 mM (inactive)"}, {"smiles": "CN1CCn2c1nc(N1CCOCC1)nc2=O", "Kd": "> 4 mM (inactive)"}, {"smiles": "CCCn1cnc2sc(C(N)=O)c(C)c2c1=O", "Kd": "> 4 mM (inactive)"}, {"smiles": "C/C(O)=c1/sc2cc(C)nc(=N)n2c1=O", "Kd": "> 4 mM (inactive)"}, {"smiles": "Nc1ncc2[nH]cnc2n1", "Kd": "> 4 mM (inactive)"}, {"smiles": "Cc1[nH]c2ccccc2c1C=Nn1cncn1", "Kd": "> 4 mM (inactive)"}]}]}
